From patent US20240254139A1, “FUSED ISOXAZOLYL COMPOUNDS AS KAT6A INHIBITORS” (Aurigene Oncology Limited, priority 2021, published 2024)

Molecular target: T1, human-KAT6A (MYST domain 507-778 aa) (Homo sapiens, UniProt Q92794)
T1 construct: human-KAT6A (MYST domain 507-778 aa)
Experiment: KAT6A biochemical assay (TR-FRET)
Details: for IC50: dose-response, sigmoidal curve fit, groups A, B, C; for inhibition at 1 µM: compound at 1 μM, percent inhibition of internal assay controls
Excerpt: A TR-FRET based method was used for assaying compounds of the invention for KAT6A enzyme inhibitory activity. TR-FRET is homogeneous proximity assay where Europium-labelled anti-acetyl lysine antibody binds to the acetylated substrate labelled with biotin which in turn binds to streptavidin labelled APC fluorescence acceptor. Europium can transfer energy to APC in the complex and the interaction of two dye-labelled binding partners is detected by the energy transfer between a donor and an acceptor dye, and the subsequent light emission by the acceptor dye. KAT6A transfer an acetyl group from acetyl CoA to lysine amino acids of histones/target proteins. Typically, 5 μL of human-KAT6A (MYST domain 507-778 aa) in assay buffer (100 mM Tris HCl (pH 7.8), 15 mM NaCl, 1 mM EDTA, 0.01% Tween-20, 0.02% BSA, 1 mM DTT) is added to a 384-well plate containing 5 μL of selected test compound in final 1% DMSO, serially diluted in 1:3 in an 8-10-point titration. The selected compound of the present invention and enzyme are incubated for 30 min at room temperature. Next, 5 μL of substrate mix containing histone H4 peptide and acetyl-CoA in assay buffer is added to the plate. The final concentrations of H4 peptide and acetyl-CoA are 200 nM and 600 nM respectively. Following 30 min reaction at room temperature, 5 μL of detection mix containing Europium labelled anti-acetyl antibody and streptavidin-APC is added to the reaction wells. Plate is further incubated for 45 min at room temperature and is read in TR-FRET mode (Ex: 340 nm; Em: 615 nm and 665 nm) on a plate reader.
Selected compounds of the present invention were screened in the above-mentioned assay procedure and IC50 values were determined by fitting the dose-response data to sigmoidal curve fitting equation using Graph pad prism software V8. […]

T1 sequence (Q92794 507-778): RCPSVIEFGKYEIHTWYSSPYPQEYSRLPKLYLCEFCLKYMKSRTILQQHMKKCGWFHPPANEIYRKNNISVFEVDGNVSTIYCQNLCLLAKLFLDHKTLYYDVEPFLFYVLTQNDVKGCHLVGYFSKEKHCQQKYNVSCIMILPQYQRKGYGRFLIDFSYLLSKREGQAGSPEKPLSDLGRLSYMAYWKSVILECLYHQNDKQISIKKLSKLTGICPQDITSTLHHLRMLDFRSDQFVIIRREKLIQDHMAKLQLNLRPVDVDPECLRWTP

Row | SMILES | inhibition at 10 µM (compound at 10 μM (stated in the cell), read-out: Percent Inhibition (at 10 μM)) [%] | IC50 [nM] | inhibition at 1 µM [%]
1 | COc1cc(C(C)(C)C)ccc1S(=O)(=O)Nc1noc2nc(-c3ccccc3)cc(OC)c12 [Compound 34, 4-(tert-butyl)-2-methoxy-N-(4-methoxy-6-phenylisoxazolo[5,4-b]pyridin-3-yl)benzenesulfonamide] | 100 | > 200 | –
2 | COc1cccc(OC)c1S(=O)(=O)Nc1noc2nc(Cn3cccn3)cc(OC)c12 [Compound 35, N-(6-((1H-pyrazol-1-yl)methyl)-4-methoxyisoxazolo[5,4-b]pyridin-3-yl)-2,6-dimethoxybenzenesulfonamide] | – | > 200 | –
3 | COc1cccc(OC)c1S(=O)(=O)N(C)c1noc2nc(-c3ccccc3)cc(OC)c12 [Compound 36, 2,6-dimethoxy-N-(4-methoxy-6-phenylisoxazolo[5,4-b]pyridin-3-yl)-N-methylbenzenesulfonamide] | – | – | 0

Continued, values first:

Row | inhibition at 10 µM (compound at 10 μM (stated in the cell), read-out: Percent Inhibition (at 10 μM)) [%] | IC50 [nM] | inhibition at 1 µM [%] | SMILES
4 | – | – | 34 | CNc1cc(OC)c2c(NS(=O)(=O)c3c(OC)cccc3OC)noc2n1 [Compound 37, 2,6-dimethoxy-N-(4-methoxy-6-(methylamino)isoxazolo[5,4-b]pyridin-3-yl)benzenesulfonamide]
5 | – | – | 95 | CCNc1cc(OC)c2c(NS(=O)(=O)c3c(OC)cccc3OC)noc2n1 [Compound 38, N-(6-(ethylamino)-4-methoxyisoxazolo[5,4-b]pyridin-3-yl)-2,6-dimethoxybenzenesulfonamide]
